Like-named read-outs stand apart in the source and are kept apart here.
What was measured:
peripheral CD34+ cells = details: after mobilization
Method: Data are expressed as mean±standard error of the mean (SEM). Data are representative of at least two independent experiments. *P<0.05; **P<0.01; ***P<0.001. #P<0.05 vs. all
The effect of overcoming PD-L1 deficiency in human HSPCs was tested by using the same agents described herein above (e.g., tested in NOD mice). […] To study the ex vivo immunoregulatory functions of pCD34+, CD34-depleted PBMCs were co-cultured with unmodulated CD34+ or pCD34+ in the presence of insulin-associated autoantigen-2 (I-A2), and the number of IFN-γ-producing cells was quantified in an ELISPOT assay. […] Finally, the effect of plerixafor-mediated mobilization, used in clinic (5, 9), was analyzed on PD-L1 expression in CD34+ cells obtained from 5 T1D patients and 8 healthy controls (Table 10).

[1] = system: PD-L1 in MDA-MB-231 cells; experiment: PD-L1 protein by western blot in transfected MDA-MB-231 cells; format: cell-based, human; details: vs corresponding negative control; 48 h
Method: MDA-MB-231 breast cancer cells were cultured in DMEM high glucose medium (Gibco, Thermo Fisher Scientific; Waltham, MA USA) supplemented with 10% heat-inactivated fetal calf serum (Gibco, Thermo Fisher Scientific), 100 units/ml penicillin, 100 μg/ml streptomycin, and 2 mM L-glutamine. 2×10^5 cells were seeded in each well of a 6-well plate and transfected with 10 pmol of the miRNA mimic or miRNA mimic negative control, or 100 pmol of the anti-miR or anti-miR negative control (all from Exiqon, Qiagen) using the Lipofectamine RNAiMAX transfection reagent (Invitrogen, Thermo Fisher Scientific) in a final culture medium volume of 2 ml, following manufacturer's instructions. […] Forty-eight hours after transfection, cells were collected from each well for RNA extraction, cell lysate preparation and FACS analysis. RNA was extracted using Direct-zol RNA miniprep plus (Zymo research, Irvine, CA, USA) and RNA quality was checked and then retro-transcribed using RETROscript® Kit (Fisher Scientific) following manufacturer's instructions. […]
Protein concentration in MDA-MB-231 cell lysates was measured. […] Finally, for the quantification of western blot, images of PVDF membranes were analyzed by ImageJ software to quantify size and strength of protein bands. […]

[2] = system: NEU1, MTOR, MYC, IGF1R, VEGFA, RB1 in MDA-MB-231 cells; experiment: mRNA of validated miRNA target genes (transfection control) in MDA-MB-231 cells; format: cell-based, human; details: VEGFA or RB1 as named for each agent, 48 h after transfection
Method: MDA-MB-231 breast cancer cells were cultured in DMEM high glucose medium (Gibco, Thermo Fisher Scientific; Waltham, MA USA) supplemented with 10% heat-inactivated fetal calf serum (Gibco, Thermo Fisher Scientific), 100 units/ml penicillin, 100 μg/ml streptomycin, and 2 mM L-glutamine. 2×10^5 cells were seeded in each well of a 6-well plate and transfected with 10 pmol of the miRNA mimic or miRNA mimic negative control, or 100 pmol of the anti-miR or anti-miR negative control (all from Exiqon, Qiagen) using the Lipofectamine RNAiMAX transfection reagent (Invitrogen, Thermo Fisher Scientific) in a final culture medium volume of 2 ml, following manufacturer's instructions. […] Forty-eight hours after transfection, cells were collected from each well for RNA extraction, cell lysate preparation and FACS analysis. RNA was extracted using Direct-zol RNA miniprep plus (Zymo research, Irvine, CA, USA) and RNA quality was checked and then retro-transcribed using RETROscript® Kit (Fisher Scientific) following manufacturer's instructions. Cell lysates were obtained in RIPA buffer (50 mmol/1 Tris-HCl, pH 8.0, 1% Triton-x, 0.5% sodium deoxycholate, 0.1% SDS, 150 mmol/1 sodium chloride) with protease inhibitor cocktail (Roche).
qRT-PCR for PD-L1 analysis was performed on retro-transcribed cDNA using SYBR® Green dye (Life Technologies, Thermo Fisher Scientific). Amplification was performed on a QuantStudio S6 Real Time PCR system (Thermo Fisher Scientific). To confirm a successful transfection, the mRNA level of genes known to be controlled by the targeted miRNAs were evaluated by SYBR® Green dye (Life Technologies, Thermo Fisher Scientific) according to the manufacturer's instructions. Normalized expression values were determined using the ΔΔCt method in treated as compared to negative treated samples, using GAPDH mRNA as endogenous reference. The miRNA-targeted genes tested, along with forward and reverse primer sequences used for their amplification, are listed in Table 13.
To determine if targeting the miRNA network decreases PD-L1 expression in human cancer setting, PD-L1-expressing MDA-MB-231 human breast cancer cells were transfected with a set of miRNA mimics or anti-miRs to either increase or decrease the function of a set of miRNAs not previously known to affect PD-L1 (miR-125b, miR-99a, miR-744, mir-599, miR-511, miR-206, miR-26b). The effect of treatment with miRNA mimics and anti-miRs on the percentage of PD-L1-expressing cells, as well as on PD-L1 mRNA and protein levels, was investigated. miRNA mimic/anti-miR treated-cells were compared to corresponding mimic/anti-miR negative control-treated cells by flow cytometric analysis, Real Time PCR and western blot to assess percentage of PD-L1-expressing cells, PD-L1 mRNA, and PD-L1 protein levels, respectively. A successful miRNA mimic/anti-miR transfection was confirmed by the detection of changed mRNA levels of the validated miRNA targets NEU1 (for miR-125b mimic), MTOR (for miR-99a mimic), MYC (for miR-744 mimic and miR-599 anti-miR), IGF1R (for miR-511 mimic), VEGFA (for miR-206 anti-miR) and RB1 (for miR-26b anti-miR) in treated cells (FIG. 22A). […] Lysates of miR-511 mimic and miR-206 anti-miR treated cells were not available for western blot analysis.

Molecule	percentage of CD34+PD-L1+ cells (peripheral CD34+ cells; T1D patients)	percentage and absolute number of CD34+ cells (peripheral CD34+ cells; 5 T1D patients and 8 healthy controls)	percentage of CD34+PD-L1+ cells (peripheral CD34+ cells; healthy controls)	PD-L1 protein levels [1]	mRNA levels of the validated miRNA target [2]
c1cc(CN2CCCNCCNCCCNCC2)ccc1CN1CCCNCCNCCCNCC1 [plerixafor]	remained stable	significantly increased	decreased	–	–
miR-599 anti-miR: Anti-miR, GUUUGAUAAACUGACACAAC, SEQ ID NO: 6 (listed as RNA, chemistry not given here)	–	–	–	increase	changed

Source: US11879137B2, “Treatment of type 1 diabetes and autoimmune diseases or disorders” (THE CHILDREN'S MEDICAL CENTER CORPORATION, priority 2017, dated 2024)
